Biological target: T1, human NaV1.3 (Homo sapiens, UniProt Q9NY46)
T1 construct: expressed in transfected cells; host or cells: HEK293
Experiment: FRET assay (EFS, FDSS) on HEK293 cells expressing human NaV1.3 channels
Format: cell-based
Details: FRET assay, HEK293 cells expressing human NaV1.3; read-out: IC50 against Nav1.3
Protocol: This screen was used to determine the effects of compounds on human NaV1.3, human Nav1.7, and human Nav1.5 channels, utilising electrical field stimulation (EFS) system in 96-well plate format on FDSS (Hamamatsu Photonics) platform. The change of membrane potential was monitored with FRET dye pair, oxonol (DiSBAC2(3)) and coumarin (CC2-DMPE).
Each HEK293 cells expressing human NaV1.3 channels and HEK293 cells expressing human NaV1.5 channels were grown in T225 flasks, in a 5% CO2 humidified incubator to about 80% confluence. Media composition consisted of Dulbecco's Modified Eagle Medium (high glucose), 10% FCS, 100 units/ml Penicillin, 100 microgram/ml Streptomycin and 500 microgram/ml Geneticine.
Protocol: • Seeded each cell lines (1×10^5 cells/well) into poly-D-lysine coated 96-well plates prior to experimentation. • Incubated at 37° C. in 5% CO2 for 24 hours. • Washed each well with assay buffer (140 mM NaCl, 4.5 mM KCl, 10 mM D-Glucose, 2 mM CaCl2, 1 mM MgCl2, 10 mM HEPES, pH 7.4 adjusted with NaOH) twice. • Added 1st loading solution containing 10 microM CC2-DMPE and 0.06% Pluronic F-127 in assay buffer. • Incubated the plate at room temperature in dark for 1 hour. • Removed 1st loading solution and added 2nd loading solution containing 15 microM DiSBAC2(3), 0.555 mM VABSC-1 and 0.004% Pluronic F-127 in assay buffer. • Placed the plate under the dark at room temperature for 25 minutes. • Added compound solutions into the assay plate. • Set the assay plate in FDSS and placed an EFS device on the plate. • Measured EFS-induced fluorescent response by FDSS.
The data were analyzed and reported as normalized ratios of intensities measured at […]. The process of calculating these ratios was performed as follows:
[formula] This analysis was performed using a computerized specific program designed for FDSS generated data. Fluorescence ratio values were plotted using XLfit to determine an IC50 value for each compound.

T1 sequence (Q9NY46 whole entry): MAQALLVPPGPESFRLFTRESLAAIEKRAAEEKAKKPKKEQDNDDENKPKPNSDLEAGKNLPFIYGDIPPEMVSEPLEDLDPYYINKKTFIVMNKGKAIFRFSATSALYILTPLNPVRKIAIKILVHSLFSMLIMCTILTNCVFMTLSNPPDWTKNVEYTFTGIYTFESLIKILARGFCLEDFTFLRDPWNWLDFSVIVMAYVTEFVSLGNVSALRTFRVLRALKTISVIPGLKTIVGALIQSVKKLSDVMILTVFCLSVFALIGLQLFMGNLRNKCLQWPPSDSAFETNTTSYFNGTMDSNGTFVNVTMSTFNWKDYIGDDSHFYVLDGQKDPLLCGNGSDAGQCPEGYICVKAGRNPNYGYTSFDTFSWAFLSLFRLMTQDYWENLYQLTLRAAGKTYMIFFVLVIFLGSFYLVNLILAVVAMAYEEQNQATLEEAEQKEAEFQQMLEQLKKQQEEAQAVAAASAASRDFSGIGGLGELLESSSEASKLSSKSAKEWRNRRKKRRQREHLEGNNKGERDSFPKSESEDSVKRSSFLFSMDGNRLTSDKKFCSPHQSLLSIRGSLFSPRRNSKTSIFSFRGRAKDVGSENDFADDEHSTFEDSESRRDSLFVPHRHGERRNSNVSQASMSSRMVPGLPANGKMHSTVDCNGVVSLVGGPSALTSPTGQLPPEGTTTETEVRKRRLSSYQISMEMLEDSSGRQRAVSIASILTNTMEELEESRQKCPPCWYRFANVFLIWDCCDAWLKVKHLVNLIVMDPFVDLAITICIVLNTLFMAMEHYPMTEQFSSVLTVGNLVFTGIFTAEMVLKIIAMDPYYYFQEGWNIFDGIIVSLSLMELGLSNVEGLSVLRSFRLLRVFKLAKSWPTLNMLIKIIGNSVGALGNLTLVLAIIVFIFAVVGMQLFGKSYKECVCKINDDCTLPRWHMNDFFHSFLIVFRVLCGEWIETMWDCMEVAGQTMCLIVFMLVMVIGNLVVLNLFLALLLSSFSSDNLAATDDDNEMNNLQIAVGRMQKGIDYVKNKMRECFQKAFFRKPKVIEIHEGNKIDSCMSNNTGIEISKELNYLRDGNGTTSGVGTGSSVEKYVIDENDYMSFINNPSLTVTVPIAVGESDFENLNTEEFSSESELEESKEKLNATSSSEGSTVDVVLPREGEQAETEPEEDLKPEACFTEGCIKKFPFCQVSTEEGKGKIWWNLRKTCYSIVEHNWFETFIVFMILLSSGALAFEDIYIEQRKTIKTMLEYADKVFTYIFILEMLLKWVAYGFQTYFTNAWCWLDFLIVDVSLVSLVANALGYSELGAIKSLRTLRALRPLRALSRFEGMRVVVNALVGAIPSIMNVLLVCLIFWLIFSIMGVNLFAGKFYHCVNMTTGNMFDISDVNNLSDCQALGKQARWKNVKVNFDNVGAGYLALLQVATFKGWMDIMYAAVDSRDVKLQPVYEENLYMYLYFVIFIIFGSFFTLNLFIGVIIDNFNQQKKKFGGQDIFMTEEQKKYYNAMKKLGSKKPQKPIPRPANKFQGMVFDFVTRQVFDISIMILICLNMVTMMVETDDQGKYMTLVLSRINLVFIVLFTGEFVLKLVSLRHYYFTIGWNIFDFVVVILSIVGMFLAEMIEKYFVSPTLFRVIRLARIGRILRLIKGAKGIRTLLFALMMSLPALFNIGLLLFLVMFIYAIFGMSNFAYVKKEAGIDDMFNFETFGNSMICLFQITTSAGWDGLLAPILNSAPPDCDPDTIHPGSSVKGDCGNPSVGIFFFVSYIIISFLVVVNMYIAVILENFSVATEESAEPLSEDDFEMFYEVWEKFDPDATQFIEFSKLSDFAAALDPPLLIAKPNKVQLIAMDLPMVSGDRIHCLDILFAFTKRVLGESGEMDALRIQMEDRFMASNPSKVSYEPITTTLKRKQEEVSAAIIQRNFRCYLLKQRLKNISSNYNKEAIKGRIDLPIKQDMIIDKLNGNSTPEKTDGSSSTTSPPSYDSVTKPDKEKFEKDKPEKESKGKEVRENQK

Row | SMILES | IC50 [µM]
1 | CC(C)COc1cc(N2CCN(C(=O)C(O)Cc3ccccc3)CC2)ncn1 (stereo in doubt) [Example 5, (R)-2-hydroxy-1-(4-(6-isobutoxypyrimidin-4-yl)piperazin-1-yl)-3-phenylpropan-1-one] | < 3
2 | CC(C)COc1cc(N2CCN(C(=O)C(NC(=O)OC(C)(C)C)c3ccccc3)CC2)ncn1 (stereo in doubt) [Example 11, (R)-tert-butyl (2-(4-(6-isobutoxypyrimidin-4-yl)piperazin-1-yl)-2-oxo-1-phenylethyl)carbamate] | < 3
3 | Cc1ccc(C(=O)N2CCN(c3cc(OC4CCCC4)ncn3)CC2)cc1F [Example 7] | < 3
4 | CC(C)COc1cc(N2CCN(C(=O)c3cccc4[nH]ccc34)CC2)ncn1 [Example 9, (1H-indol-4-yl)(4-(6-isobutoxypyrimidin-4-yl)piperazin-1-yl)methanone] | < 3
5 | CC(C)COc1cc(N2CCN(C(=O)c3cc(C(F)(F)F)nn3C)CC2)ncn1 [Example 14, (4-(6-isobutoxypyrimidin-4-yl)piperazin-1-yl)(1-methyl-3-(trifluoromethyl)-1H-pyrazol-5-yl)methanone] | < 3
6 | Cc1ccc(C(=O)N2CCN(c3cc(OC4CCC4)ncn3)CC2)cc1F [Example 16] | < 3
7 | CC(C)COc1cc(N2CCN(C(=O)c3ccc4ccccc4n3)CC2)ncn1 [Example 18, (4-(6-isobutoxypyrimidin-4-yl)piperazin-1-yl)(quinolin-2-yl)methanone] | < 3
8 | CC(C)COc1cc(N2CCN(C(=O)c3nc4ccccc4n3C)CC2)ncn1 [Example 23, (4-(6-isobutoxypyrimidin-4-yl)piperazin-1-yl)(1-methyl-1H-benzo[d]imidazol-2-yl)methanone] | < 3
9 | Cn1nc(C(=O)N2CCN(c3cc(OCC(F)(F)F)ncn3)CC2)cc1C(F)(F)F [Example 29, (1-methyl-5-(trifluoromethyl)-1H-pyrazol-3-yl)(4-(6-(2,2,2-trifluoroethoxy)pyrimidin-4-yl)piperazin-1-yl)methanone] | < 3
10 | Cn1nc(C(=O)N2CCN(c3cc(OCC(F)(F)F)ncn3)CC2)c2ccccc21 [Example 30, (1-methyl-1H-indazol-3-yl)(4-(6-(2,2,2-trifluoroethoxy)pyrimidin-4-yl)piperazin-1-yl)methanone] | < 3
11 | CC(C)COc1cc(N2CCN(C(=O)c3cnc4ccccc4n3)CC2)ncn1 [Example 34, (4-(6-isobutoxypyrimidin-4-yl)piperazin-1-yl)(quinoxalin-2-yl)methanone] | < 3
12 | Cn1nc(C(=O)N2CCN(c3cc(OC4CCC4)ncn3)CC2)c2ccccc21 [Example 38, (4-(6-cyclobutoxypyrimidin-4-yl)piperazin-1-yl)(1-methyl-1H-indazol-3-yl)methanone] | < 3
13 | CC(C)COc1cc(N2CCN(C(=O)C(C)Oc3ccc(F)cc3)CC2)ncn1 (stereo not shown) [Example 48, 2-(4-fluorophenoxy)-1-(4-(6-isobutoxypyrimidin-4-yl)piperazin-1-yl)propan-1-one] | < 3
14 | CC(C)COc1cc(N2CCN(C(=O)c3cccc(N4CCCC4)n3)CC2)ncn1 [Example 52, (4-(6-isobutoxypyrimidin-4-yl)piperazin-1-yl)(6-(pyrrolidin-1-yl)pyridin-2-yl)methanone] | < 3
15 | CC(C)COc1cc(N2CCN(C(=O)OCc3ccccc3)CC2)ncn1 [Example 53, benzyl 4-(6-isobutoxypyrimidin-4-yl)piperazine-1-carboxylate] | < 3
16 | CC(C)COc1cc(N2CCN(C(=O)CN3C(=O)COc4ccccc43)CC2)ncn1 [Example 57, 4-(2-(4-(6-isobutoxypyrimidin-4-yl)piperazin-1-yl)-2-oxoethyl)-2H-benzo[b][1,4]oxazin-3(4H)-one] | < 3
17 | CC(C)COc1cc(N2CCN(C(=O)Cc3noc4ccccc34)CC2)ncn1 [Example 58, 2-(benzo[d]isoxazol-3-yl)-1-(4-(6-isobutoxypyrimidin-4-yl)piperazin-1-yl)ethanone] | < 3
18 | CC(C)COc1cc(N2CCN(C(=O)CCN3Cc4ccccc4C3=O)CC2)ncn1 [Example 61, 2-(3-(4-(6-isobutoxypyrimidin-4-yl)piperazin-1-yl)-3-oxopropyl)isoindolin-1-one] | < 3
19 | COCCn1c(C(=O)N2CCN(c3cc(OCC(C)C)ncn3)CC2)cc2ccccc21 [Example 62, (4-(6-isobutoxypyrimidin-4-yl)piperazin-1-yl)(1-(2-methoxyethyl)-1H-indol-2-yl)methanone] | < 3

Row | SMILES | IC50 [µM]
20 | COc1cc(C(=O)N2CCN(c3cc(OCC(F)(F)F)ncn3)CC2)nc2ccccc12 [Example 63, (4-methoxyquinolin-2-yl)(4-(6-(2,2,2-trifluoroethoxy)pyrimidin-4-yl)piperazin-1-yl)methanone] | < 3
21 | O=C(c1n[nH]c2ccccc12)N1CCN(c2cc(OCC(F)(F)F)ncn2)CC1 [Example 68, (1H-indazol-3-yl)(4-(6-(2,2,2-trifluoroethoxy)pyrimidin-4-yl)piperazin-1-yl)methanone] | < 3
22 | COc1cccc(C(=O)NCC(=O)N2CCN(c3cc(OCC(C)C)ncn3)CC2)n1 [Example 73, N-(2-(4-(6-isobutoxypyrimidin-4-yl)piperazin-1-yl)-2-oxoethyl)-6-methoxypicolinamide] | < 3
23 | CC(C)COc1cc(N2CCN(C(=O)COc3cccc4ncccc34)CC2)ncn1 [Example 78, 1-(4-(6-isobutoxypyrimidin-4-yl)piperazin-1-yl)-2-(quinolin-5-yloxy)ethanone] | < 3
24 | O=C(c1cnc2ccccc2n1)N1CCN(c2cc(OC3CCC3)ncn2)CC1 [Example 82, (4-(6-cyclobutoxypyrimidin-4-yl)piperazin-1-yl)(quinoxalin-2-yl)methanone] | < 3
25 | O=C(c1ccc2cccc(O)c2n1)N1CCN(c2cc(OC3CCC3)ncn2)CC1 [Example 83, (4-(6-cyclobutoxypyrimidin-4-yl)piperazin-1-yl)(8-hydroxyquinolin-2-yl)methanone] | < 3
26 | O=C(NCC(=O)N1CCN(c2cc(OC3CCC3)ncn2)CC1)c1ccccc1 [Example 85, N-(2-(4-(6-cyclobutoxypyrimidin-4-yl)piperazin-1-yl)-2-oxoethyl)benzamide] | < 3
27 | Cc1cc(C(=O)N2CCN(c3cc(OCC(C)C)ncn3)CC2)nn1-c1ccccc1 [Example 91] | < 3
28 | CC(C)COc1cc(N2CCN(C(=O)c3ccc(-c4cnco4)cc3)CC2)ncn1 [Example 92] | < 3
29 | CC(C)COc1cc(N2CCN(C(=O)c3ccc(-n4cccn4)cc3)CC2)ncn1 [Example 93, (4-(1H-pyrazol-1-yl)phenyl)(4-(6-isobutoxypyrimidin-4-yl)piperazin-1-yl)methanone] | < 3
30 | Cc1ccc(C(=O)N2C[C@@H]3C[C@H]2CN3c2cc(OCC(C)C)ncn2)cc1F [Example 94, (3-fluoro-4-methylphenyl)((1S,4S)-5-(6-isobutoxypyrimidin-4-yl)-2,5-diazabicyclo[2.2.1]heptan-2-yl)methanone] | < 3
31 | CC(C)COc1cc(N2CCN(C(=O)COc3cccc(F)c3)CC2)ncn1 [Example 96, 2-(3-fluorophenoxy)-1-(4-(6-isobutoxypyrimidin-4-yl)piperazin-1-yl)ethanone] | < 3
32 | CC(C)COc1cc(N2CCN(C(=O)COc3ccc(F)c(F)c3)CC2)ncn1 [Example 97, 2-(3,4-difluorophenoxy)-1-(4-(6-isobutoxypyrimidin-4-yl)piperazin-1-yl)ethanone] | < 3
33 | CC(C)COc1cc(N2CCN(C(=O)CN3CCc4ccccc4C3=O)CC2)ncn1 [Example 98, 2-(2-(4-(6-isobutoxypyrimidin-4-yl)piperazin-1-yl)-2-oxoethyl)-3,4-dihydroisoquinolin-1(2H)-one] | < 3
34 | CC(C)COc1cc(N2CCN(C(=O)Cc3cn(C)c4ccccc34)CC2)ncn1 [Example 101, 1-(4-(6-isobutoxypyrimidin-4-yl)piperazin-1-yl)-2-(1-methyl-1H-indol-3-yl)ethanone] | < 3
35 | CC(C)COc1cc(N2CCN(C(=O)COCc3ccccc3)CC2)ncn1 [Example 106, 2-(benzyloxy)-1-(4-(6-isobutoxypyrimidin-4-yl)piperazin-1-yl)ethanone] | < 3
36 | O=C(Cc1noc2ccccc12)N1CCN(c2cc(OCC(F)(F)F)ncn2)CC1 [Example 107, 2-(benzo[d]isoxazol-3-yl)-1-(4-(6-(2,2,2-trifluoroethoxy)pyrimidin-4-yl)piperazin-1-yl)ethanone] | < 3
37 | O=C(Cc1noc2ccccc12)N1CCN(c2cc(OC3CCC3)ncn2)CC1 [Example 111, 2-(benzo[d]isoxazol-3-yl)-1-(4-(6-cyclobutoxypyrimidin-4-yl)piperazin-1-yl)ethanone] | < 3

Source: patent US8999974B2, “Acyl piperazine derivatives as TTX-S blockers” (Raqualia Pharma Inc., priority 2010, dated 2015)
